According to patent publication US20080171117A1, “METHODS FOR REDUCING MICROBIAL CONTAMINATION IN SEAFOOD PROCESSING” (Tasker Products Corp., priority 2004, published 2008):

What was measured:
Coliform = experiment: Treated salmon under refrigeration: Coliform; conditions: Treated With O3
SPC = experiment: Treated salmon under refrigeration: SPC; conditions: Treated With O3

Compound: O=[O+][O-] [O3, Ozone]
- Coliform (Coliform; day 3): 0.5
- Coliform (Coliform; day 6): 0.5
- Coliform (Coliform; day 8): 0.5
- Coliform (Coliform; day 9): 0.5
- Coliform (Coliform; day 10): 0.5
- Log SPC (SPC; day 3): 0
- SPC (SPC; day 3): 1
- Log SPC (SPC; day 6): 0
- SPC (SPC; day 6): 1
- Log SPC (SPC; day 8): 1.643
- SPC (SPC; day 8): 44
- Log SPC (SPC; day 9): 0
- SPC (SPC; day 9): 1
- Log SPC (SPC; day 10): 1.146
- SPC (SPC; day 10): 14
